From patent publication US20240376097A1, “BCL-2 Inhibitor” (BeiGene Ltd., priority 2020, published 2024)
Read-outs that look alike come from different tables or passages of the source.

How the values were obtained:
[1] = test system: recombinant human Bcl-2-G101V protein; test: Bcl-2-G101V TR-FRET Assay; assay type: binding; conditions: for Ratio of Bcl-2 G101V/WT: ratio of biochemical IC50 Bcl-2 G101V / Bcl-2 WT
In short: (§1)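 Displacement of ligand from recombinant human Bcl-2-G101V measured by TR-FRET (ex337 nm, em490/520 nm), inhibition derived from the 490/520 ratio across compound titrations. IC50 from four-parameter logistic fit.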

[2] = target: recombinant human Bcl-2-G101V protein (Homo sapiens (Human), UniProt P10415, G101V); test: Bcl-2-G101V TR-FRET Assay; assay type: binding; conditions: Bcl-2 G101V mutant, TR-FRET; read-out: Biochemical assay (IC50, nM) Bcl-2 G101V
In short: as §1

[3] = target: recombinant human Bcl-2 D103Y protein (Homo sapiens (Human), UniProt P10415, D103Y); test: Bcl-2-D103Y Biochemical Assay (TR-FRET); assay type: binding; conditions: for IC50: TR-FRET, FITC labeled Bak peptide; for Ratio of Bcl-2 D103Y/Bcl-2 WT: ratio of IC50; for ratio of Bcl-2 D103Y/Bcl-2 wt, compared with F91b in WO2019210828: comparison in words
In short: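 Recombinant human Bcl-2 D103Y binding to its ligand measured by TR-FRET (ex 337 nm, em 490/520 nm) with increasing compound concentrations. Percent inhibition from the 490/520 nm ratio; IC50 from four-parameter logistic fit.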

[4] = test system: RS4;11 (BCL-2 dependent acute lymphoblastic leukemia cell line); test: RS4;11 Cell Proliferation Assay; assay type: cell-based; conditions: Homo sapiens, RS4-11, RS4;11 cells, read-out: Cellular proliferation assay (IC50, nM) RS4
In short: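 RS4;11 cells, 50,000 per well in RPMI-1640 with 10% FBS, treated 48 h at 37 °C with a 10-point dilution series topping at 1 μM. Viability read by CellTiter-Glo ATP luminescence; mean IC50 reported.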

[5] = test system: BCL-2 G101V knock-in cell line H96 (derive from RS4;11); test: Bcl 2-G101V Knock-In RS4;11 Cell Proliferation Assay; assay type: cell-based; conditions: Homo sapiens, RS4;11 Bcl-2 G101V knock-in clone H96, 48 hrs, CellTiter-GLO, read-out: Cellular proliferation assay (IC50, nM) RS4
In short: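 H96, a CRISPR-generated RS4;11 clone carrying BCL2-G101V knock-in (WES/RNA-seq validated), seeded 50,000 per well and exposed 48 h at 37 °C to 10-point dilutions topping at 1 or 10 μM. Viability by CellTiter-Glo luminescence; mean IC50.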

[6] = target: Recombinant human Bcl-2 protein (Homo sapiens (Human), UniProt P10415); test: Bcl-2 TR-FRET Assay; assay type: binding
In short: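 Compounds were pre-incubated with 0.05 nM recombinant Bcl-2 for 0.5 h at room temperature in potassium phosphate buffer, pH 7.5. FITC-Bak peptide (0.5 nM) and Tb-cryptate antibody were then added for 1 h. Percent inhibition from TR-FRET signals gave IC50 values.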

[7] = Bcl-2 wild type, TR-FRET, read-out: Biochemical assay (IC50, nM) Bcl-2 WT
[8] = wild type Bcl-2, unit inferred, read-out: Bcl-2 WT

Row | SMILES | Ratio of Bcl-2 G101V/WT [1] | IC50 [2] [nM] | IC50 [3] [nM] | Ratio of Bcl-2 D103Y/Bcl-2 WT [3] | IC50 [4] [nM] | IC50 [5] [nM] | IC50 [6, 7] [nM] | IC50 [6, 8] [nM] | ratio of Bcl-2 D103Y/Bcl-2 wt, compared with F91b in WO2019210828 [3] | ratio of IC50 of Bcl-2 G101V/Bcl-2 wt, compared with Example F132b in WO2019210828 and ABT-199 (venetoclax) ([1]; comparison in words)
1 | COc1nn(C)cc1CN1CCN(C2CC3(CCN(c4ccc(C(=O)NS(=O)(=O)c5ccc(NC[C@H]6CC[C@](C)(O)CC6)c([N+](=O)[O-])c5)c(Oc5cnc6[nH]ccc6c5)c4)CC3)C2)C(c2ccccc2C(C)C)C1 (stereo partly drawn) [Example 71, 2-((1H-pyrrolo[2,3-b]pyridin-5-yl)oxy)-N-((4-((((1r,4r)-4-hydroxy-4-methylcyclohexyl)methyl)amino)-3-nitrophenyl)sulfonyl)-4-(2-(2-(2-isopropylphenyl)-4-((3-methoxy-1-methyl-1H-pyrazol-4-yl)methyl)piperazin-1-yl)-7-azaspiro[3.5]nonan-7-yl)benzamide] | 8.3 | 0.17 | 0.15 | 7.6 | 0.43 | 2 | 0.02 | 0.02 | – | –
2 | COc1ccc(CN2CCN(C3CC4(CCN(c5ccc(C(=O)NS(=O)(=O)c6ccc(NC[C@H]7CC[C@](C)(O)CC7)c([N+](=O)[O-])c6)c(Oc6cnc7[nH]ccc7c6)c5)CC4)C3)C(c3ccccc3C3CC3)C2)cc1 (stereo partly drawn) [Example 73, 2-((1H-pyrrolo[2,3-b]pyridin-5-yl)oxy)-4-(2-(2-(2-cyclopropylphenyl)-4-(4-methoxybenzyl)piperazin-1-yl)-7-azaspiro[3.5]nonan-7-yl)-N-((4-((((1r,4r)-4-hydroxy-4-methylcyclohexyl)methyl)amino)-3-nitrophenyl)sulfonyl)benzamide] | 7.9 | 0.47 | 0.31 | 5.1 | 0.37 | 2.4 | 0.06 | 0.06 | – | –
3 | COc1cc(CN2CCN(C3CC4(CCN(c5ccc(C(=O)NS(=O)(=O)c6ccc(NC[C@H]7CC[C@](C)(O)CC7)c([N+](=O)[O-])c6)c(Oc6cnc7[nH]ccc7c6)c5)CC4)C3)C(c3ccccc3C(C)C)C2)cc(OC)c1OC (stereo partly drawn) [Example 75, 2-((1H-pyrrolo[2,3-b]pyridin-5-yl)oxy)-N-((4-((((1r,4r)-4-hydroxy-4-methylcyclohexyl)methyl)amino)-3-nitrophenyl)sulfonyl)-4-(2-(2-(2-isopropylphenyl)-4-(3,4,5-trimethoxybenzyl)piperazin-1-yl)-7-azaspiro[3.5]nonan-7-yl) benzamide] | 4.7 | 0.28 | 0.22 | 3.6 | 0.35 | 1.5 | 0.059 | 0.059 | significantly lower | –
4 | CC(C)c1ccccc1C1CN(Cc2ccc3c(c2)OCCO3)CCN1C1CC2(CCN(c3ccc(C(=O)NS(=O)(=O)c4ccc(NC[C@H]5CC[C@](C)(O)CC5)c([N+](=O)[O-])c4)c(Oc4cnc5[nH]ccc5c4)c3)CC2)C1 (stereo partly drawn) [Example 78, 2-((1H-pyrrolo[2,3-b]pyridin-5-yl)oxy)-4-(2-(4-((2,3-dihydrobenzo[b] [1,4]dioxin-6-yl)methyl)-2-(2-isopropylphenyl)piperazin-1-yl)-7-azaspiro[3.5]nonan-7-yl)-N-((4-((((1r,4r)-4-hydroxy-4-methylcyclohexyl)methyl)amino)-3-nitrophenyl)sulfonyl)benzamide] | 4.6 | 0.98 | 0.62 | 2.9 | 0.42 | 2.6 | 0.21 | 0.21 | – | –
5 | CC(C)c1ccccc1C1CN(Cc2cccc3c2OCCO3)CCN1C1CC2(CCN(c3ccc(C(=O)NS(=O)(=O)c4ccc(NC[C@H]5CC[C@](C)(O)CC5)c([N+](=O)[O-])c4)c(Oc4cnc5[nH]ccc5c4)c3)CC2)C1 (stereo partly drawn) [Example 79, 2-((1H-pyrrolo[2,3-b]pyridin-5-yl)oxy)-4-(2-(4-((2,3-dihydrobenzo [b][1,4]dioxin-5-yl)methyl)-2-(2-isopropylphenyl)piperazin-1-yl)-7-azaspiro[3.5]nonan-7-yl)-N-((4-((((1r,4r)-4-hydroxy-4-methylcyclohexyl)methyl)amino)-3-nitrophenyl)sulfonyl)benzamide] | 3.2 | 0.51 | 0.19 | 1.2 | 0.35 | 1 | 0.16 | 0.16 | – | –
6 | COc1ccc(CN2CCN(C3CC4(CCN(c5ccc(C(=O)NS(=O)(=O)c6ccc(NC[C@H]7CC[C@](C)(O)CC7)c([N+](=O)[O-])c6)c(Oc6cnc7[nH]ccc7c6)c5)CC4)C3)C(c3ccccc3C(C)C)C2)cc1OC (stereo partly drawn) [Example 81, 2-((1H-pyrrolo[2,3-b]pyridin-5-yl)oxy)-4-(2-(4-(3,4-dimethoxybenzyl)-2-(2-isopropylphenyl)piperazin-1-yl)-7-azaspiro[3.5]nonan-7-yl)-N-((4-((((1r,4r)-4-hydroxy-4-methylcyclohexyl)methyl)amino)-3-nitrophenyl)sulfonyl)benzamide] | 5.2 | 0.2 | 0.084 | 2.2 | 0.286 | 0.878 | 0.038 | 0.038 | – | –
7 | CC(C)c1ccccc1C1CN(Cc2ccc(S(C)(=O)=O)cc2)CCN1C1CC2(CCN(c3ccc(C(=O)NS(=O)(=O)c4ccc(NC[C@H]5CC[C@](C)(O)CC5)c([N+](=O)[O-])c4)c(Oc4cnc5[nH]ccc5c4)c3)CC2)C1 (stereo partly drawn) [Example 82, 2-((1H-pyrrolo[2,3-b]pyridin-5-yl)oxy)-N-((4-((((1r,4r)-4-hydroxy-4-methylcyclohexyl)methyl)amino)-3-nitrophenyl)sulfonyl)-4-(2-(2-(2-isopropylphenyl)-4-(4-(methylsulfonyl)benzyl)piperazin-1-yl)-7-azaspiro[3.5]nonan-7-yl) benzamide] | 9.5 | 0.29 | 0.17 | 5.6 | 0.42 | 2.67 | 0.031 | 0.031 | – | –
8 | COc1ccc(CN2CCN(C3CC4(C3)CN(c3ccc(C(=O)NS(=O)(=O)c5ccc(NC[C@H]6CC[C@](C)(O)CC6)c([N+](=O)[O-])c5)c(Oc5cnc6[nH]ccc6c5)c3)C4)C(c3ccccc3C(C)C)C2)cc1 (stereo partly drawn) [Example 83, 2-((1H-pyrrolo[2,3-b]pyridin-5-yl)oxy)-N-((4-((((1r,4r)-4-hydroxy-4-methylcyclohexyl)methyl)amino)-3-nitrophenyl)sulfonyl)-4-(6-(2-(2-isopropylphenyl)-4-(4-methoxybenzyl)piperazin-1-yl)-2-azaspiro[3.3]heptan-2-yl) benzamide] | 3.1 | 0.25 | 0.16 | 2 | 0.27 | 0.73 | 0.079 | 0.079 | significantly lower | much lower
9 | CC(C)c1ccccc1C1CN(Cc2cccc3c2OCCCO3)CCN1C1CC2(CCN(c3ccc(C(=O)NS(=O)(=O)c4ccc(NC[C@H]5CC[C@](C)(O)CC5)c([N+](=O)[O-])c4)c(Oc4cnc5[nH]ccc5c4)c3)CC2)C1 (stereo partly drawn) [Example 107, 2-((1H-pyrrolo[2,3-b]pyridin-5-yl)oxy)-4-(2-(4-((3,4-dihydro-2H-benzo[b][1,4]dioxepin-6-yl)methyl)-2-(2-isopropylphenyl)piperazin-1-yl)-7-azaspiro[3.5]nonan-7-yl)-N-((4-((((1r,4r)-4-hydroxy-4-methylcyclohexyl)methyl)amino)-3-nitrophenyl)sulfonyl)benzamide] | 5.1 | 0.56 | 0.31 | 2.8 | 0.33 | 1.77 | 0.11 | 0.11 | – | –
